Experimental data reported in ChEMBL document CHEMBL1914447, “Novel orally active antimalarial thiazoles” (J Med Chem, 2011).
In brackets after ≈: the same amount, converted by molar mass.

Assays:
[1] = Lipophilicity, log D of the compound by gradient HPLC at pH 3.0; type: physicochemical; settings: buffer
[2] = Lipophilicity, log D of the compound by gradient HPLC at pH 7.4; type: physicochemical; settings: buffer
[3] = Kinetic solubility of the compound by nephelometry at pH 2.0; type: physicochemical; settings: buffer, read-out: Kinetic_solubility
Plasmodium falciparum [4] = test: microbe, parasite or virus in culture; settings: NF54
Plasmodium falciparum [5] = test: microbe, parasite or virus in culture; settings: K1
[6] = Kinetic solubility of the compound by nephelometry at pH 6.5; type: physicochemical; settings: buffer, read-out: Kinetic_solubility
Liver microsomes [7] = test: Metabolic stability in human liver microsomes at 1 uM by LC-MS analysis; type: ADME, Microsome
Liver microsomes [8] = test: Metabolic stability in rat liver microsomes at 1 uM by LC-MS analysis; type: ADME, Microsome
Liver = test: Metabolic stability in mouse liver microsomes at 1 uM by LC-MS analysis; type: ADME, Microsome
Plasmodium berghei [9] = test: Antimalarial activity against GFP-transfected Plasmodium berghei ANKA infected in NMRI mouse assessed as reduction in parasitemia at 100 mg/kg, po administered as single dose after 72 hrs by flow cytometry; type: functional; design: scale not given: the % may be the effect or the level left
Plasmodium berghei [10] = test: Antimalarial activity against GFP-transfected Plasmodium berghei ANKA infected in NMRI mouse assessed as reduction in parasitemia at 10 mg/kg, po administered as single dose after 72 hrs by flow cytometry; type: functional; design: scale not given: the % may be the effect or the level left
Plasmodium berghei [11] = test: Antimalarial activity against GFP-transfected Plasmodium berghei ANKA infected in NMRI mouse assessed as mean survival time at 30 mg/kg, po administered as single dose; type: functional
Plasmodium berghei [12] = test: Antimalarial activity against GFP-transfected Plasmodium berghei ANKA infected in NMRI mouse assessed as reduction in parasitemia at 30 mg/kg, po administered as single dose after 72 hrs by flow cytometry; type: functional; design: scale not given: the % may be the effect or the level left
Plasmodium berghei [13] = test: Antimalarial activity against GFP-transfected Plasmodium berghei ANKA infected in po dosed NMRI mouse assessed as reduction in parasitemia administered as single dose after 72 hrs by flow cytometry; type: functional
Plasmodium berghei [14] = test: Antimalarial activity against GFP-transfected Plasmodium berghei ANKA infected in NMRI mouse assessed as mean survival time at 100 mg/kg, po administered as single dose; type: functional
Plasmodium berghei [15] = test: Antimalarial activity against GFP-transfected Plasmodium berghei ANKA infected in NMRI mouse assessed as mean survival time at 10 mg/kg, po administered as single dose; type: functional

Compound: NCc1csc(NC(=O)c2cc3ccccc3n2Cc2ccccc2)n1
- chromatographic logD [1]: 2.4
- chromatographic logD [2]: 3
- solubility kinetic [3]: 25 µg/mL (≈ 69 µM)
- IC50 (Plasmodium falciparum [4]): 10.3 µM
- IC50 (Plasmodium falciparum [5]): 6.98 µM
- solubility kinetic [6]: 1.6 µg/mL (≈ 4.41 µM)

Compound: CC(C)(C)c1cc(C(=O)Nc2cccnc2)n(Cc2ccccc2)n1
- chromatographic logD [1]: 3.5
- Stability (Liver microsomes [7]): Unstable
- chromatographic logD [2]: 3.8
- solubility kinetic [3]: > 100 µg/mL
- Stability (Liver microsomes [8]): Unstable
- IC50 (Plasmodium falciparum [4]): 4.99 µM
- IC50 (Plasmodium falciparum [5]): 6.45 µM
- solubility kinetic [6]: 6.3 µg/mL (≈ 18.8 µM)
- Stability (Liver): Unstable

Compound: NCc1csc(NC(=O)c2cn(Cc3ccccc3)nn2)n1
- chromatographic logD [1]: 1.1
- chromatographic logD [2]: 1.4
- solubility kinetic [3]: 50 µg/mL (≈ 159 µM)
- IC50 (Plasmodium falciparum [4]): > 3.18 µM
- IC50 (Plasmodium falciparum [5]): > 3.18 µM
- solubility kinetic [6]: 25 µg/mL (≈ 79.5 µM)

Compound: CN(C)Cc1csc(NC(=O)c2cc(C(C)(C)C)nn2Cc2ccccc2)n1
- chromatographic logD [1]: 2.6
- Stability (Liver microsomes [7]): Unstable
- chromatographic logD [2]: 4.2
- solubility kinetic [3]: > 100 µg/mL
- Stability (Liver microsomes [8]): Unstable
- IC50 (Plasmodium falciparum [4]): 2.41 µM
- IC50 (Plasmodium falciparum [5]): 1.48 µM
- solubility kinetic [6]: 25 µg/mL (≈ 62.9 µM)
- Stability (Liver): Unstable

Compound: NCc1csc(NC(=O)c2cnnn2Cc2ccccc2)n1
- chromatographic logD [1]: 1.3
- chromatographic logD [2]: 1.6
- solubility kinetic [3]: > 100 µg/mL
- IC50 (Plasmodium falciparum [4]): > 3.18 µM
- IC50 (Plasmodium falciparum [5]): > 3.18 µM
- solubility kinetic [6]: 50 µg/mL (≈ 159 µM)

Compound: CC(=O)NCc1csc(NC(=O)c2cc(C(C)(C)C)nn2Cc2ccccc2)n1
- chromatographic logD [1]: 3.3
- Stability (Liver microsomes [7]): Unstable
- chromatographic logD [2]: 3.3
- solubility kinetic [3]: 12.5 µg/mL (≈ 30.4 µM)
- Stability (Liver microsomes [8]): Unstable
- IC50 (Plasmodium falciparum [4]): 6.24 µM
- IC50 (Plasmodium falciparum [5]): 4.27 µM
- solubility kinetic [6]: 12.5 µg/mL (≈ 30.4 µM)
- Stability (Liver): Unstable

Compound: CC(C)(C)c1cc(C(=O)Nc2nc(CNS(C)(=O)=O)cs2)n(Cc2ccccc2)n1
- chromatographic logD [1]: 3.7
- Stability (Liver microsomes [7]): Unstable
- chromatographic logD [2]: 3.7
- solubility kinetic [3]: 3.1 µg/mL (≈ 6.93 µM)
- Stability (Liver microsomes [8]): Unstable
- IC50 (Plasmodium falciparum [4]): 4.68 µM
- IC50 (Plasmodium falciparum [5]): 2.93 µM
- solubility kinetic [6]: 3.1 µg/mL (≈ 6.93 µM)
- Stability (Liver): Unstable

Compound: NCc1csc(NC(=O)c2cc3ccccc3[nH]2)n1
- chromatographic logD [1]: 1.1
- chromatographic logD [2]: 1.4
- solubility kinetic [3]: > 100 µg/mL
- IC50 (Plasmodium falciparum [4]): 30.4 µM
- IC50 (Plasmodium falciparum [5]): 22.2 µM
- solubility kinetic [6]: 25 µg/mL (≈ 91.8 µM)

Compound: CC(C)(C)c1cc(C(=O)Nc2ccccc2)n(Cc2ccccc2)n1
- chromatographic logD [1]: 4.7
- Stability (Liver microsomes [7]): Unstable
- chromatographic logD [2]: 4.7
- solubility kinetic [3]: 1.6 µg/mL (≈ 4.8 µM)
- Stability (Liver microsomes [8]): Unstable
- IC50 (Plasmodium falciparum [4]): 7.92 µM
- IC50 (Plasmodium falciparum [5]): 11 µM
- solubility kinetic [6]: 1.6 µg/mL (≈ 4.8 µM)
- Stability (Liver): Unstable

Compound: NCc1csc(NC(=O)c2ccc(Cl)cc2)n1
- chromatographic logD [1]: 1.2
- chromatographic logD [2]: 1.6
- solubility kinetic [3]: > 100 µg/mL
- IC50 (Plasmodium falciparum [4]): > 37.5 µM
- IC50 (Plasmodium falciparum [5]): 37.5 µM
- solubility kinetic [6]: 25 µg/mL (≈ 93.4 µM)

Compound: CNCc1csc(NC(=O)c2cc(C(C)(C)C)nn2Cc2ccccc2)n1
- chromatographic logD [1]: 2.6
- Stability (Liver microsomes [7]): Stable
- chromatographic logD [2]: 3.8
- solubility kinetic [3]: 25 µg/mL (≈ 65.2 µM)
- Stability (Liver microsomes [8]): Stable
- IC50 (Plasmodium falciparum [4]): 0.16 µM
- IC50 (Plasmodium falciparum [5]): 0.19 µM
- solubility kinetic [6]: 12.5 µg/mL (≈ 32.6 µM)
- Stability (Liver): Stable

Compound: NCc1csc(NC(=O)c2cccnn2)n1
- chromatographic logD [1]: 0
- chromatographic logD [2]: 0.2
- solubility kinetic [3]: > 100 µg/mL
- IC50 (Plasmodium falciparum [4]): > 42.5 µM
- IC50 (Plasmodium falciparum [5]): 42.5 µM
- solubility kinetic [6]: 50 µg/mL (≈ 213 µM)

Compound: NCc1csc(NC(=O)c2ccccc2)n1
- chromatographic logD [1]: 0.7
- chromatographic logD [2]: 1
- solubility kinetic [3]: > 100 µg/mL
- IC50 (Plasmodium falciparum [4]): > 42.9 µM
- IC50 (Plasmodium falciparum [5]): 42.9 µM
- solubility kinetic [6]: 25 µg/mL (≈ 107 µM)

Compound: CCN(CC)CCCC(C)Nc1ccnc2cc(Cl)ccc12 (centres undefined) [CHLOROQUINE]
- Activity (Plasmodium berghei [9]): >99.9%
- Activity (Plasmodium berghei [10]): 99.5%
- MSD (Plasmodium berghei [11]): 9 days
- Activity (Plasmodium berghei [12]): 99.7%
- ED50 (Plasmodium berghei [13]): 1.9 mg/kg
- ED90 (Plasmodium berghei [13]): 4.2 mg/kg
- MSD (Plasmodium berghei [14]): 12 days
- MSD (Plasmodium berghei [15]): 7 days
